{
  "source": "patent US5053333A",
  "about": "“Protease” (M & D Research Co., Ltd., priority 1988, dated 1991)",
  "key": {"[1]": {"tested_on": "Benz-I (protease specific for basic amino acid residue)", "test": "Behavior of Benz-I against various inhibitors (residual activity)", "assay_type": "biochemical, Kluyveromyces lactis IFO 1903"}, "[2]": {"tested_on": "protease specific for basic amino acid residue from Sporobolomyces odrus IFO 1597", "test": "Behavior of Sporobolomyces protease against various inhibitors (residual activity)", "assay_type": "biochemical", "settings": "Ca2+ +, 25° C. 30 minutes"}, "[3]": {"tested_on": "Benz-II (protease specific for basic amino acid residue)", "test": "Behavior of Benz-II against various inhibitors (residual activity)", "assay_type": "biochemical, Kluyveromyces lactis IFO 1903"}, "[4]": {"tested_on": "protease specific for basic amino acid residue from Sporobolomyces odrus IFO 1597", "test": "Substrate specificity of Sporobolomyces protease with fluorescent substrates", "assay_type": "biochemical", "settings": "activity for Boc-Gln-Arg-Arg-MCA being 100; standard conditions", "protocol": "A reaction mixture containing 50 μmol of tris hydrochloride buffer solution (pH 7.0), 10 mg of Lubrol PX, 0.5 μmol of calcium chloride, 0.1 μmol of Boc-Gln-Arg-Arg-MCA, wherein Boc represents a t-butyloxycalbonyl group while MCA represents 4-methylcoumarin-7-amide and the enzyme is allowed to react at 30° C. The fluorescence (excition wavelength: 380 nm, emission wavelength: 460 nm) originating from the 7-amino-4-methylcoumarin (AMC) thus formed is monitored. The amount of the enzyme capable of catalyzing the release of 1 nmol of AMC per one minute is defined as 1 U.\nThe activities of the enzyme for various fluorescent substrates were determined under standard reaction conditions."}, "[5]": {"tested_on": "Benz-I (protease specific for basic amino acid residue)", "test": "Substrate specificity of Benz-I with fluorescent substrates", "assay_type": "biochemical, Kluyveromyces lactis IFO 1903", "settings": "activity for Boc-Gln-Arg-Arg-MCA being 100; standard conditions", "protocol": "(§1) 1 ml of a reaction mixture containing 50 μmol of Tris-hydrochloride buffer (pH 7.0), 10 mg of Lubrol PX, 0.5 μmol of calcium chloride, 0.1 μmol of Boc-Gln-Arg-Arg-MCA, wherein Boc represents a t-butyloxycarbonyl group while MCA represents 4-methylcoumarin-7-amide and the enzyme is allowed to react at 30° C. The fluorescence (excition wavelength: 380 nm, emmision wavelength: 460 nm) originating from the 7-amino-4-methylcoumarin (AMC) thus formed is monitored with the lapse of time. The amount of the enzyme activity capable of catalyzing the release of 1 n mol of AMC per one minute is defined as 1 U. The specific activity is represented by U per mg of protein. The amount of the protein is determined by measurement the absorbance at […] as E^1% of protein being assumed to be 10.\n(§2) The activities of Benz-I and Benz-II were determined under standard conditions with the use of various fluorescent substrates. The activity for each substrate was expressed by relative activity with the activity for Boc-Gln-Arg-Arg-MCA being 100."}, "[6]": {"tested_on": "Benz-II (protease specific for basic amino acid residue)", "test": "Substrate specificity of Benz-II with fluorescent substrates", "assay_type": "biochemical, Kluyveromyces lactis IFO 1903", "settings": "activity for Boc-Gln-Arg-Arg-MCA being 100; standard conditions", "protocol": "as §1, §2"}, "[7]": {"settings": "inhibitor 0.2 mM, 25° C. 30 minutes, control lot = 100"}, "[8]": {"settings": "inhibitor 10 μM, 25° C. 30 minutes, control lot = 100"}, "[9]": {"settings": "inhibitor 1 mM, 25° C. 30 minutes, control lot = 100"}},
  "note": "Like-named read-outs stand apart in the source and are kept apart here. Numbered stars: 1 amine (or outer) side, 2 acyl side, 3 side chain; on linkers, the order of the positions; unused ones are H or OH. Square brackets hold non-standard residues; d marks the D form. Peptide text beside a SMILES is read from it. * marks the point of attachment. Sta = CC(C)C[C@H](N)[C@@H](O)CC(=O)O; AMC = Cc1cc(=O)oc2cc(N*)ccc12; Suc = O=C(CCC(=O)[*:2])[*:1]; Isovaleryl = CC(C)CC(=O)*; Cbz = O=C(OCc1ccccc1)*; Boc = CC(C)(C)OC(=O)*",
  "data": [
    {"smiles": "Cc1ccc(S(=O)(=O)NC(CCCCN)C(=O)CCl)cc1", "note": "(centres unmarked) [tosyllysine chloromethyl ketone]", "values": [
      {"measurement": "Residual activity of Benz-I", "setting": "[1]; [7]", "value": 98},
      {"measurement": "relative activity (residual)", "setting": "[2]; inhibitor 0.2 mM", "value": 108, "unit": "%"},
      {"measurement": "Residual activity of Benz-II", "setting": "[3]; [7]", "value": 95}
    ]},
    {"smiles": "O=C(O)CI", "note": "[iodoacetic acid]", "values": [
      {"measurement": "Residual activity of Benz-I", "setting": "[1]", "value": 99},
      {"measurement": "Residual activity of Benz-II", "setting": "[3]", "value": 93}
    ]},
    {"smiles": "CC(C)C[C@H](NC(=O)[C@@H](O)[C@H](N)Cc1ccccc1)C(=O)O", "note": "[bestatin]", "values": [
      {"measurement": "Residual activity of Benz-I", "setting": "[1]; [8]", "value": 95},
      {"measurement": "relative activity (residual)", "setting": "[2]; inhibitor 10 μM", "value": 97, "unit": "%"},
      {"measurement": "Residual activity of Benz-II", "setting": "[3]; [8]", "value": 97}
    ]},
    {"smiles": "Cc1cc(=O)oc2cc(NC(=O)[C@H](Cc3ccc(O)cc3)NC(=O)[C@@H](NC(=O)[C@H](CC(C)C)NC(=O)[C@H](CC(C)C)NC(=O)CCC(=O)O)C(C)C)ccc12", "note": "[Suc--Leu--Leu--Val--Tyr--MCA] (Suc-LLVY-{AMC})", "values": [
      {"measurement": "Activity (relative) for substrate", "setting": "[4]", "value": 0, "unit": "%"}
    ]},
    {"smiles": "CC(C)CC(=O)N[C@H](C(=O)N[C@H](C(=O)N[C@@H](CC(C)C)[C@@H](O)CC(=O)N[C@@H](C)C(=O)N[C@@H](CC(C)C)[C@@H](O)CC(=O)O)C(C)C)C(C)C", "note": "[pepstatin A] (Isovaleryl-VV[Sta]A[Sta]-OH)", "values": [
      {"measurement": "Residual activity of Benz-I", "setting": "[1]; [8]", "value": 100},
      {"measurement": "relative activity (residual)", "setting": "[2]; inhibitor 10 μM", "value": 104, "unit": "%"},
      {"measurement": "Residual activity of Benz-II", "setting": "[3]; [8]", "value": 96}
    ]},
    {"smiles": "Cc1cc(=O)oc2cc(NC(=O)[C@H](CCCNC(=N)N)NC(=O)[C@@H](NC(=O)[C@H](CO)NC(=O)[C@H](CC(C)C)NC(=O)OC(C)(C)C)[C@@H](C)O)ccc12", "note": "[Boc--Leu--Ser--Thr--Arg--MCA] (Boc-LSTR-{AMC})", "values": [
      {"measurement": "Relative activity of Benz-I for substrate", "setting": "[5]", "value": 127},
      {"measurement": "Activity (relative) for substrate", "setting": "[4]", "value": 2, "unit": "%"},
      {"measurement": "Relative activity of Benz-II for substrate", "setting": "[6]", "value": 97.0}
    ]},
    {"smiles": "Cc1cc(=O)oc2cc(NC(=O)[C@H](CCCNC(=N)N)NC(=O)[C@H](CCCCN)NC(=O)CNC(=O)OC(C)(C)C)ccc12", "note": "[Boc--Gly--Lys--Arg--MCA] (Boc-Gly-Lys-Arg-{AMC})", "values": [
      {"measurement": "Relative activity of Benz-I for substrate", "setting": "[5]", "value": 120},
      {"measurement": "Activity (relative) for substrate", "setting": "[4]", "value": 59, "unit": "%"},
      {"measurement": "Relative activity of Benz-II for substrate", "setting": "[6]", "value": 123}
    ]},
    {"smiles": "NC(=O)CI", "note": "[iodoacetamide]", "values": [
      {"measurement": "Residual activity of Benz-I", "setting": "[1]; [9]", "value": 92},
      {"measurement": "relative activity (residual)", "setting": "[2]; inhibitor 1 mM", "value": 96, "unit": "%"},
      {"measurement": "Residual activity of Benz-II", "setting": "[3]; [9]", "value": 87}
    ]},
    {"smiles": "Cc1cc(=O)oc2cc(NC(=O)[C@H](C)NC(=O)[C@@H]3CCCN3C(=O)[C@H](C)NC(=O)CCC(=O)O)ccc12", "note": "[Suc--Ala--Pro--Ala--MCA] (Suc-Ala-Pro-Ala-{AMC})", "values": [
      {"measurement": "Activity (relative) for substrate", "setting": "[4]", "value": 0, "unit": "%"}
    ]},
    {"smiles": "Cc1cc(=O)oc2cc(NC(=O)[C@@H](N)CCCNC(=N)N)ccc12", "note": "[Arg--MCA]", "values": [
      {"measurement": "Activity (relative) for substrate", "setting": "[4]", "value": "< 1", "unit": "%"}
    ]},
    {"smiles": "CC(=O)N[C@@H](CC(C)C)C(=O)N[C@@H](CC(C)C)C(=O)N[C@H](C=O)CCCNC(=N)N", "note": "[leupeptin]", "values": [
      {"measurement": "Residual activity of Benz-I", "setting": "[1]; [8]", "value": 93},
      {"measurement": "relative activity (residual)", "setting": "[2]; inhibitor 10 μM", "value": 92, "unit": "%"},
      {"measurement": "Residual activity of Benz-II", "setting": "[3]; [8]", "value": 96}
    ]},
    {"smiles": "Cc1cc(=O)oc2cc(NC(=O)[C@H](CCCNC(=N)N)NC(=O)[C@@H]3CCCN3C(=O)CNC(=O)[C@H](C)NC(=O)OC(C)(C)C)ccc12", "note": "[Boc--Ala--Gly--Pro--Arg--MCA] (Boc-AGPR-{AMC})", "values": [
      {"measurement": "Relative activity of Benz-I for substrate", "setting": "[5]", "value": 1.9},
      {"measurement": "Activity (relative) for substrate", "setting": "[4]", "value": 1, "unit": "%"},
      {"measurement": "Relative activity of Benz-II for substrate", "setting": "[6]", "value": 1.6}
    ]},
    {"smiles": "Cc1cc(=O)oc2cc(NC(=O)[C@H](CCCNC(=N)N)NC(=O)[C@H](CCCNC(=N)N)NC(=O)[C@H](CC(C)C)NC(=O)OC(C)(C)C)ccc12", "note": "[Boc--Leu--Arg--Arg--MCA] (Boc-Leu-Arg-Arg-{AMC})", "values": [
      {"measurement": "Relative activity of Benz-I for substrate", "setting": "[5]", "value": 159},
      {"measurement": "Activity (relative) for substrate", "setting": "[4]", "value": 115, "unit": "%"},
      {"measurement": "Relative activity of Benz-II for substrate", "setting": "[6]", "value": 156}
    ]},
    {"smiles": "CC(C)C[C@H](NP(=O)(O)O[C@@H]1O[C@@H](C)[C@H](O)[C@@H](O)[C@H]1O)C(=O)N[C@@H](Cc1c[nH]c2ccccc12)C(=O)O", "note": "[phosphoramidon]", "values": [
      {"measurement": "Residual activity of Benz-I", "setting": "[1]; [8]", "value": 101},
      {"measurement": "relative activity (residual)", "setting": "[2]; inhibitor 10 μM", "value": 100, "unit": "%"},
      {"measurement": "Residual activity of Benz-II", "setting": "[3]; [8]", "value": 93}
    ]},
    {"smiles": "Cc1cc(=O)oc2cc(NC(=O)[C@H](CCCNC(=N)N)NC(=O)CNC(=O)[C@H](CC(C)C)NC(=O)OC(C)(C)C)ccc12", "note": "[Boc--Leu--Gly--Arg--MCA] (Boc-Leu-Gly-Arg-{AMC})", "values": [
      {"measurement": "Activity (relative) for substrate", "setting": "[4]", "value": 1, "unit": "%"}
    ]},
    {"smiles": "Cc1cc(=O)oc2cc(NC(=O)[C@H](CCCNC(=N)N)NC(=O)[C@H](CCCNC(=N)N)NC(=O)OCc3ccccc3)ccc12", "note": "[Z--Arg--Arg--MCA] (Cbz-Arg-Arg-{AMC})", "values": [
      {"measurement": "Activity (relative) for substrate", "setting": "[4]", "value": 0, "unit": "%"}
    ]},
    {"smiles": "Cc1cc(=O)oc2cc(NC(=O)[C@H](CCCNC(=N)N)NC(=O)[C@@H]3CCCN3C(=O)[C@@H](NC(=O)OC(C)(C)C)C(C)C)ccc12", "note": "[Boc--Val--Pro--Arg--MCA] (Boc-Val-Pro-Arg-{AMC})", "values": [
      {"measurement": "Relative activity of Benz-I for substrate", "setting": "[5]", "value": 107},
      {"measurement": "Activity (relative) for substrate", "setting": "[4]", "value": 26, "unit": "%"},
      {"measurement": "Relative activity of Benz-II for substrate", "setting": "[6]", "value": 88.0}
    ]},
    {"smiles": "Cc1cc(=O)oc2cc(NC(=O)[C@@H]3CCCN3C(=O)CNC(=O)CCC(=O)O)ccc12", "note": "[Suc--Gly--Pro--MCA] (Suc-Gly-Pro-{AMC})", "values": [
      {"measurement": "Activity (relative) for substrate", "setting": "[4]", "value": 0, "unit": "%"}
    ]}
  ]
}
